Columns and labels:
[1] = molecular target: T1, AHR (Homo sapiens, UniProt P35869); assay: In vitro assay 2: agonism in human cell line (transactivation assay)
T1 sequence (P35869 11-848): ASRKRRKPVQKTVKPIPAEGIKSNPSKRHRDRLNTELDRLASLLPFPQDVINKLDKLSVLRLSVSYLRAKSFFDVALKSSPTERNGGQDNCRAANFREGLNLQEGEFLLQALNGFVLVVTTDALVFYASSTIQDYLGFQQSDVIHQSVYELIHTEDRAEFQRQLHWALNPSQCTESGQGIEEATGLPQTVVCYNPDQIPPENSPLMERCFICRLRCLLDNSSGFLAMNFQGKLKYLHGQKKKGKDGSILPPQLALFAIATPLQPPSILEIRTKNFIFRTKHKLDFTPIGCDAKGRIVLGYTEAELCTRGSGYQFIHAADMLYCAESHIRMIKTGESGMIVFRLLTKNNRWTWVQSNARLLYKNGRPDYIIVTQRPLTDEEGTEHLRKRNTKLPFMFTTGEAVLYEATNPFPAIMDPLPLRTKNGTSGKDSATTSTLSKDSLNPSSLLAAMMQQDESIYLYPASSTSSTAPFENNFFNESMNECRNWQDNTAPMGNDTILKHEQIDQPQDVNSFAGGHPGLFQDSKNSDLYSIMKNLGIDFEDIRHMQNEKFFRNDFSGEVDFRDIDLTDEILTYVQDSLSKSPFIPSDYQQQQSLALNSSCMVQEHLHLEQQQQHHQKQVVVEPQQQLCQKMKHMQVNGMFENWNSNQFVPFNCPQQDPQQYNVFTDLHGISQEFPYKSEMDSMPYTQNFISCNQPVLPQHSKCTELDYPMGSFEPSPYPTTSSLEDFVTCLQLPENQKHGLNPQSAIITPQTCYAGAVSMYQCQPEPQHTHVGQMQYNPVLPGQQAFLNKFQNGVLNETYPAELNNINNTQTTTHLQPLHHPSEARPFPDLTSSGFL

[2] = molecular target: T1, AHR; assay: In vitro assay 1: antagonism in human cell line (transactivation assay, kynurenic acid prestimulated)
[3] = Assay 2: AHR-luc Hum Agonism IC50 [M], no kynurenic acid, 20 hours, firefly luciferase
[4] = Assay 1: AHR-luc Hum Antagonism IC50 [M], 150 μM kynurenic acid, 20 hours, firefly luciferase
[5] = read-out: Assay 2: AHR-luc Hum Agonism IC50, no kynurenic acid, 20 hours, firefly luciferase

Compound | IC50 [1, 3] [M] | IC50 [2, 4] [M] | IC50 [1, 5] [M] | IC50 ([2]; read-out: Assay 1: AHR-luc Hum Antagonism IC50, 150 μM kynurenic acid, 20 hours, firefly luciferase) [M]
O=C(NC(CO)C1CCOC1)c1cc(-c2ccc(Cl)cc2)nn(-c2cccc(F)c2)c1=O (single isomer, unassigned) [Example 39] | > 2e-05 | 2.76e-08 | – | –
CC(C)C(O)CNC(=O)c1cc(-c2ccc(Cl)cc2)nn(-c2cccc(F)c2)c1=O (stereo not drawn) [Example 28, 6-(4-Chlorophenyl)-2-(3-fluorophenyl)-N-(2-hydroxy-3-methylbutyl)-3-oxo-2,3-dihydropyridazine-4-carboxamide] | > 2e-05 | 8.85e-08 | – | –
Cc1ccc(-c2cc(C(=O)N[C@@H](C)CO)c(=O)n(-c3cccc(F)c3)n2)cc1 [Example 8, 2-(3-Fluorophenyl)-N-[(2S)-1-hydroxypropan-2-yl]-6-(4-methylphenyl)-3-oxo-2,3-dihydropyridazine-4-carboxamide] | > 2e-05 | 3.61e-08 | – | –
CC(C)[C@@H](CO)NC(=O)c1cc(-c2ccc(C(F)F)cc2)nn(-c2cccc(F)c2)c1=O [Example 91, 6-[4-(Difluoromethyl)phenyl]-2-(3-fluorophenyl)-N-[(2S)-1-hydroxy-3-methylbutan-2-yl]-3-oxo-2,3-dihydropyridazine-4-carboxamide] | > 2e-05 | 4.44e-09 | – | –
O=C(NCC(O)C(F)(F)F)c1cc(-c2ccc(Cl)cc2)nn(-c2ccccc2)c1=O (stereo not drawn) [Example 76, 6-(4-chlorophenyl)-3-oxo-2-phenyl-N-(3,3,3-trifluoro-2-hydroxypropyl)-2,3-dihydropyridazine-4-carboxamide] | > 2e-05 | 9.37e-08 | – | –
COCC(O)CNC(=O)c1cc(-c2ccc(C)cc2)nn(-c2cccc(F)c2)c1=O (stereo not drawn) [Example 16, 2-(3-Fluorophenyl)-N-(2-hydroxy-3-methoxypropyl)-6-(4-methylphenyl)-3-oxo-2,3-dihydropyridazine-4-carboxamide] | > 2e-05 | 1.74e-07 | – | –
COc1ccc(-c2cc(C(=O)N[C@@H]3CCCC[C@@H]3O)c(=O)n(-c3cccc(F)c3)n2)cc1 (relative stereo) [Example 106, 2-(3-Fluorophenyl)-N-(cis-2-hydroxycyclohexyl)-6-(4-methoxyphenyl)-3-oxo-2,3-dihydropyridazine-4-carboxamide] | > 2e-05 | 1.98e-08 | – | –
O=C(NC(CO)C1CCOC1)c1cc(-c2ccc(Cl)cc2)nn(-c2cccc(F)c2)c1=O (single isomer, unassigned) [Example 42, 6-(4-Chlorophenyl)-2-(3-fluorophenyl)-N-[2-hydroxy-1-(tetrahydrofuran-3-yl)ethyl]-3-oxo-2,3-dihydropyridazine-4-carboxamide] | – | 3.44e-07 | > 2e-05 | –
2-(3-Fluorophenyl)-N-{(2-hydroxy-1-[tetrahydrofuran-3-yl]ethyl}-6-(4-methoxyphenyl)-3-oxo-2,3-dihydropyridazine-4-carboxamide [Example 158] | – | – | > 2e-05 | 2.75e-07
Cc1ccc(-c2cc(C(=O)NCC(O)C(F)(F)F)c(=O)n(-c3cccc(F)c3)n2)cc1 (single isomer, unassigned; enantiomer 1) [Example 5, 2-(3-Fluorophenyl)-6-(4-methylphenyl)-3-oxo-N-(3,3,3-trifluoro-2-hydroxypropyl)-2,3-dihydropyridazine-4-carboxamide, enantiomer 1] | > 2e-05 | 1.65e-08 | – | –

Further lines, with some results ahead:

IC50 [1, 3] [M] | IC50 [2, 4] [M] | IC50 [1, 5] [M] | Compound | IC50 ([2]; read-out: Assay 1: AHR-luc Hum Antagonism IC50, 150 μM kynurenic acid, 20 hours, firefly luciferase) [M]
> 2e-05 | 2.29e-07 | – | O=C(NCC(O)C(F)(F)F)c1cc(-c2ccc(Cl)c(Cl)c2)nn(-c2cccc(F)c2)c1=O (stereo not drawn) [Example 302, 6-(3,4-Dichlorophenyl)-2-(3-fluorophenyl)-3-oxo-N-(3,3,3-trifluoro-2-hydroxypropyl)-2,3-dihydropyridazine-4-carboxamide] | –
> 2e-05 | 8.45e-09 | – | O=C(N[C@@H]1COC[C@@H]1O)c1cc(-c2ccc(C(F)(F)F)cc2)nn(-c2cccc(F)c2)c1=O (racemic) [Example 341, 2-(3-fluorophenyl)-N-(cis-4-hydroxytetrahydrofuran-3-yl)-3-oxo-6-[4-(trifluoromethyl)phenyl]-2,3-dihydropyridazine-4-carboxamide] | –
> 2e-05 | 7.64e-08 | – | O=C(NCC(O)C(F)F)c1cc(-c2ccc(Cl)cc2)nn(-c2cccc(F)c2)c1=O (racemic) [Example 221, 6-(4-Chlorophenyl)-N-[(2RS)-3,3-difluoro-2-hydroxypropyl]-2-(3-fluorophenyl)-3-oxo-2,3-dihydropyridazine-4-carboxamide] | –
> 2e-05 | 3e-06 | – | CN(C)CC(O)CNC(=O)c1cc(-c2ccc(Cl)cc2)nn(-c2cccc(F)c2)c1=O (racemic) [Example 235, 6-(4-Chlorophenyl)-N-[(2RS)-3-(dimethylamino)-2-hydroxypropyl]-2-(3-fluorophenyl)-3-oxo-2,3-dihydropyridazine-4-carboxamide] | –
– | 1e-07 | > 2e-05 | O=C(NC(CO)C1CC1)c1cc(-c2ccc(C(F)(F)F)cc2)nn(-c2cccc(F)c2)c1=O (single isomer, unassigned; (+)) [Example 352, (+)-N-(1-cyclopropyl-2-hydroxyethyl)-2-(3-fluorophenyl)-3-oxo-6-[4-(trifluoromethyl)phenyl]-2,3-dihydropyridazine-4-carboxamide] | –
> 2e-05 | 2.35e-07 | – | O=C(NC(CO)C1CCOCC1)c1cc(-c2ccc(Cl)cc2)nn(-c2cccc(F)c2)c1=O (single isomer, unassigned) [Example 150, 6-(4-Chlorophenyl)-2-(3-fluorophenyl)-N-[2-hydroxy-1-(tetrahydro-2H-pyran-4-yl)ethyl]-3-oxo-2,3-dihydropyridazine-4-carboxamide] | –
> 2e-05 | 2.06e-08 | – | O=C(N[C@@H]1CCCC(F)(F)[C@H]1O)c1cc(-c2ccc(Cl)cc2)nn(-c2cccc(F)c2)c1=O (relative stereo) [Example 274, 6-(4-Chlorophenyl)-N-[(trans)-3,3-difluoro-2-hydroxycyclohexyl]-2-(3-fluorophenyl)-3-oxo-2,3-dihydropyridazine-4-carboxamide] | –
> 2e-05 | 1.44e-07 | – | CC(O)C(C)NC(=O)c1cc(-c2ccc(Cl)c(F)c2)nn(-c2cccc(F)c2)c1=O (stereo not drawn) [Example 289, 6-(4-Chloro-3-fluorophenyl)-2-(3-fluorophenyl)-N-(3-hydroxybutan-2-yl)-3-oxo-2,3-dihydropyridazine-4-carboxamide] | –
> 2e-05 | 1.09e-07 | – | O=C(NC(CO)Cc1ccncc1)c1cc(-c2ccc(Cl)cc2)nn(-c2cccc(F)c2)c1=O (racemic) [Example 334, 6-(4-chlorophenyl)-2-(3-fluorophenyl)-N-[(2RS)-1-hydroxy-3-(pyridin-4-yl)propan-2-yl]-3-oxo-2,3-dihydropyridazine-4-carboxamide] | –
– | 1.86e-06 | > 2e-05 | Cc1cccc(-n2nc(-c3ccc(Cl)cc3)cc(C(=O)NCC(O)C(F)(F)F)c2=O)c1 (single isomer, unassigned) [Example 368, 6-(4-chlorophenyl)-2-(3-methylphenyl)-3-oxo-N-(3,3,3-trifluoro-2-hydroxypropyl)-2,3-dihydropyridazine-4-carboxamide] | –
> 2e-05 | 1.15e-07 | – | O=C(N[C@@H]1CC[C@@H]1O)c1cc(-c2ccc(Cl)cc2)nn(-c2cccc(F)c2)c1=O (single isomer, unassigned) [Example 358] | –
– | 2.08e-07 | > 2e-05 | CC(O)C(NC(=O)c1cc(-c2ccc(C(F)(F)F)cc2)nn(-c2cccc(F)c2)c1=O)C(F)(F)F (single isomer, unassigned) [Example 350, 2-(3-fluorophenyl)-3-oxo-N-(1,1,1-trifluoro-3-hydroxybutan-2-yl)-6-[4-(trifluoromethyl)phenyl]-2,3-dihydropyridazine-4-carboxamide] | –
– | 2.4e-07 | > 2e-05 | COc1ccc(-c2cc(C(=O)N[C@@H]3CCCC[C@@H]3O)c(=O)n(-c3cccc(F)c3)n2)cc1 (single isomer, unassigned) [Example 108, 2-(3-Fluorophenyl)-N-(cis-2-hydroxycyclohexyl)-6-(4-methoxyphenyl)-3-oxo-2,3-dihydropyridazine-4-carboxamide] | –
– | 9.15e-07 | > 2e-05 | CC(O)C(C)NC(=O)c1cc(-c2ccc(OC(F)F)cc2)nn(-c2cccc(F)c2)c1=O (single isomer, unassigned) [Example 142, 6-[4-(Difluoromethoxy)phenyl]-2-(3-fluorophenyl)-N-(3-hydroxybutan-2-yl)-3-oxo-2,3-dihydropyridazine-4-carboxamide] | –
